Laboratory results as given in PMC7583847 (2020).

What was measured:
Assay in all cases: UV melting at 260 nm
pApU (RNA, polymer) A/U = settings: Na+ (sodium cacodylate, I = 0.05 M); sodium cacodylate pH 7.0; r = [compound]/[polynucleotide] = 0.2; per base
[1] = system: p(dAdT)2 (DNA, polymer) AT; settings: Na+ (sodium cacodylate, I = 0.05 M); sodium cacodylate pH 7.0; r = [compound]/[polynucleotide] = 0.2; per base
[2] = system: polyAH+-polyAH+ (RNA, polymer, protonated adenines (pH 5)) A; settings: Na+ (sodium cacodylate, I = 0.05 M); sodium cacodylate pH 5.0; r = 0.2; second transition of poly A-poly U (free Tm 80.1 °C); per base

| Compound | ΔTm (pApU (RNA, polymer) A/U) [°C] | ΔTm [1] [°C] | ΔTm [2] [°C] |
| --- | --- | --- | --- |
| COC(=O)C(Cc1cn(CCCCN2C=CC(=Cc3sc4ccc(Br)cc4[n+]3C)c3ccccc32)nn1)NC(=O)c1ccc(C(=O)NC(=N)N)[nH]1 (stereo not drawn) | 3.0 ± 0.5 | 1.1 ± 0.5 | 1.0 ± 0.5 |
| COC(=O)C(Cc1cn(CCCC[n+]2c(C=C3C=CN(C)c4ccccc43)sc3ccc(Br)cc32)nn1)NC(=O)c1ccc(C(=O)NC(=N)N)[nH]1 (stereo not drawn) | 1.0 ± 0.5 | 0.3 ± 0.5 | 1.0 ± 0.5 |
